From article PMC4010122 (Journal of medicinal chemistry, 2008)

Tests used:
Assay type in all cases: biochemical
BRAF^WT = BRAF^WT (Homo sapiens, UniProt P15056); test: ELISA-based MEK phosphorylation assay
PAK1 = PAK1 (Homo sapiens, UniProt Q13153); test: Kinase profiling, PAK1; conditions: inhibitor concentration of 100 μM
MST1 = molecular target: T1, MST1 (Homo sapiens, UniProt Q13043); test: Kinase profiling, MST1; conditions: inhibitor concentration of 100 μM
T1 sequence (Q13043 1-487): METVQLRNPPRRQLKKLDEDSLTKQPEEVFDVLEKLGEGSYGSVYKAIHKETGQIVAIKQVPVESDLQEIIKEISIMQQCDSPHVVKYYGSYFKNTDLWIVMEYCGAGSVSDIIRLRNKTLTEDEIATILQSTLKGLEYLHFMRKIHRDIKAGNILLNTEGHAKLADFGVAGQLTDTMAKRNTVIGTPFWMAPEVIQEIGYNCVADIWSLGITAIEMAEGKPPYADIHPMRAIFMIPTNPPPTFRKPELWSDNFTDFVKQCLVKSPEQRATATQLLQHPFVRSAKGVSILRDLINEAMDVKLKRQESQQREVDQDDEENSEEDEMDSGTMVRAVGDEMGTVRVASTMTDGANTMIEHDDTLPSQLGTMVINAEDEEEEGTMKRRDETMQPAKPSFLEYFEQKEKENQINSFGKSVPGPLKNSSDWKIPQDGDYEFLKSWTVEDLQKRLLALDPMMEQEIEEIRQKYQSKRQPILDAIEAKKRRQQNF

PI3Kγ = PI3Kγ (Homo sapiens, UniProt P48736); test: Kinase profiling, PI3Kγ lipid kinase; conditions: BRAF versus PI3Kγ
GSK3β = GSK3β (Homo sapiens, UniProt P49841); test: Kinase profiling, GSK3β; conditions: inhibitor concentration of 100 μM
Pim1 = Pim1 (Homo sapiens, UniProt P11309); test: Kinase profiling, Pim1; conditions: inhibitor concentration of 100 μM
PAK4 = PAK4 (Homo sapiens, UniProt O96013); test: Kinase profiling, PAK4; conditions: inhibitor concentration of 100 μM
PAK4, sequence (O96013 whole entry, species assumed): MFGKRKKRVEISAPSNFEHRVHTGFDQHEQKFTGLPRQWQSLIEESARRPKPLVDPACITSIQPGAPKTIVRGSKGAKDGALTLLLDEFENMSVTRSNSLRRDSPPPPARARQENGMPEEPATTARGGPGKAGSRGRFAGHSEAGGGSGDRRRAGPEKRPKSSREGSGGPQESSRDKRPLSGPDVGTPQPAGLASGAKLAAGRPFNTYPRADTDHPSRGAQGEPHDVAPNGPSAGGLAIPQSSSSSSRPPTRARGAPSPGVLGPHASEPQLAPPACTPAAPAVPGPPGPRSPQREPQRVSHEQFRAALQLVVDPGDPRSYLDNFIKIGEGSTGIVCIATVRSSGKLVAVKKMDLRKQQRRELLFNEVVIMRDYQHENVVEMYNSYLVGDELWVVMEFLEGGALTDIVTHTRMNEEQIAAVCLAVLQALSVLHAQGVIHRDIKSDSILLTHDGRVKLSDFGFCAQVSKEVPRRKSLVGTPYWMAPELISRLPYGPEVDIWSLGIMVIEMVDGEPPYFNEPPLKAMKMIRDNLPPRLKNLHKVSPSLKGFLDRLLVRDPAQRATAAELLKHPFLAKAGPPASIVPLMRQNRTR

BRAF^WT, sequence (P15056 433-726): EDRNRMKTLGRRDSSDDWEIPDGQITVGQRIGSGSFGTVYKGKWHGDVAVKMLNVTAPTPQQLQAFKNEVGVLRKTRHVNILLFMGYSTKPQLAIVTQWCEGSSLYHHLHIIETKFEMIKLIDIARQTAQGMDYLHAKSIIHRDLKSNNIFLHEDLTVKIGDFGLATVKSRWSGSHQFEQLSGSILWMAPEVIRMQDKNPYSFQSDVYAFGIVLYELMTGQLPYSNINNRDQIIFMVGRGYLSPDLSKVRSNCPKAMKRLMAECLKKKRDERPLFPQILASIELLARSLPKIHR
GSK3β, sequence (P49841 whole entry, species assumed): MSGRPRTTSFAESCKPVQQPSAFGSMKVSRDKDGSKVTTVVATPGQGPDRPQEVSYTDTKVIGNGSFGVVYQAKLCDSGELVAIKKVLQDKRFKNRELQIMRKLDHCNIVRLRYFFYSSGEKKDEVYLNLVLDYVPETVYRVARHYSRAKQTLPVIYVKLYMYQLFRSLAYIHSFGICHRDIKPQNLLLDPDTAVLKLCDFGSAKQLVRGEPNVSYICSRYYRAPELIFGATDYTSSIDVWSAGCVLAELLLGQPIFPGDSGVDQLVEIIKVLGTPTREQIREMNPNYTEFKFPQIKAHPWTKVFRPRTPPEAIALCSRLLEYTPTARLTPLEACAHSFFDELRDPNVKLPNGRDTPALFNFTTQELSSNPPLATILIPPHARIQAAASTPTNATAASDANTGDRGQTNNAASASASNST
Pim1, sequence (P11309 whole entry, species assumed): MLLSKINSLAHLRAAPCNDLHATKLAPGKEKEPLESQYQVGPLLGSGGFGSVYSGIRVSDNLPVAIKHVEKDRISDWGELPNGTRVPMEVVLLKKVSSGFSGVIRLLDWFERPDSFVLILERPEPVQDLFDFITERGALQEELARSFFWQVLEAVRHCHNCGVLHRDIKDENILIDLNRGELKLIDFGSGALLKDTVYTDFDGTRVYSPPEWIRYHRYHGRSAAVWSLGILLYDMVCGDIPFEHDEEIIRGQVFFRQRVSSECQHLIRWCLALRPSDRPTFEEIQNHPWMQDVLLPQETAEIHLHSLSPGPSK
PAK1, sequence (Q13153 whole entry): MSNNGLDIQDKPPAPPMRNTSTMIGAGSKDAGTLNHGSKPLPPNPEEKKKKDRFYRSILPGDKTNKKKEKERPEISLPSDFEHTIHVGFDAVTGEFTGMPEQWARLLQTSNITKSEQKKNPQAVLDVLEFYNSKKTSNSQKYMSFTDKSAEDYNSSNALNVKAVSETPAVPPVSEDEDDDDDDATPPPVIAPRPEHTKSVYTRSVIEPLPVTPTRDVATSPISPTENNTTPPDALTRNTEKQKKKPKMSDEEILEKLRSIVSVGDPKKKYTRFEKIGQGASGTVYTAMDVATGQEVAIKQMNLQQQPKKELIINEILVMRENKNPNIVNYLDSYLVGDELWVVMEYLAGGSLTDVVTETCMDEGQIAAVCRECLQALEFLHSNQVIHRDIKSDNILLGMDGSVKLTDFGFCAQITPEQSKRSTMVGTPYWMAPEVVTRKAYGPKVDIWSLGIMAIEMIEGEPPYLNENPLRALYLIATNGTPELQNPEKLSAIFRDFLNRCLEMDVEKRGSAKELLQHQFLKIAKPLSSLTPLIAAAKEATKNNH
PI3Kγ, sequence (P48736 whole entry, species assumed): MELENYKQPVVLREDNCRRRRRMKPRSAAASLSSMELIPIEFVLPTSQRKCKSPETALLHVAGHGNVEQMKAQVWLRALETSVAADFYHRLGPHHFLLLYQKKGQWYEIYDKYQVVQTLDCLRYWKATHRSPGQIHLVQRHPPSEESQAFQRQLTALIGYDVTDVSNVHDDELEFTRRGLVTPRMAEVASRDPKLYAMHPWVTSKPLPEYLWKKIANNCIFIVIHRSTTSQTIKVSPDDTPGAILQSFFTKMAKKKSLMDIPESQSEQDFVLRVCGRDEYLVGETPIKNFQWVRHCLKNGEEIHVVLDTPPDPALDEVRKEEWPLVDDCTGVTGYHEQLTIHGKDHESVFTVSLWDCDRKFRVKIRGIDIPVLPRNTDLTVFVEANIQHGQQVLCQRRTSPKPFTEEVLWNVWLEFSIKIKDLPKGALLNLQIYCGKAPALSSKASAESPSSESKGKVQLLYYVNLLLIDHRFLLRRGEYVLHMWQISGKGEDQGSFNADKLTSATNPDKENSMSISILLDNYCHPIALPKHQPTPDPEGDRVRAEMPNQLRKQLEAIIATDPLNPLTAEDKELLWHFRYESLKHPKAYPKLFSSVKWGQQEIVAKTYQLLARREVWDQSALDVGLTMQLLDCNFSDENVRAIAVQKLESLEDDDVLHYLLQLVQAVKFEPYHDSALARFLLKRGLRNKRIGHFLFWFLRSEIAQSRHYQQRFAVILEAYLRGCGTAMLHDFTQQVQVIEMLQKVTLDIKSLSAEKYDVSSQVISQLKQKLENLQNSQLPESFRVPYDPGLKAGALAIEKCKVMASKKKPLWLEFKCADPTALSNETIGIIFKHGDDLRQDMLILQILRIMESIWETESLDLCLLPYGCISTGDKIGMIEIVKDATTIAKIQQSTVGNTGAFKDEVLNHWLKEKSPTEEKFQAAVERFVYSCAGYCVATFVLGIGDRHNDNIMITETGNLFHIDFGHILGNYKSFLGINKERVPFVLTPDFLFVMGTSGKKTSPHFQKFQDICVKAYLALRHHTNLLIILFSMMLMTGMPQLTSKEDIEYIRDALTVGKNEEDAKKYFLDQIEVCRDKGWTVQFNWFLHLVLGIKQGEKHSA

## CC1Nc2nc(NC(=O)c3ccc[n+](C)c3)[nH]c(=O)c2N(C(=O)c2ccc[n+](C)c2)C1C (stereo not shown) [compound 1]
BRAF^WT; read-out: BRAF kinase activity remaining (of wild-type activity)
  remaining activity at 100 µM: ~80%

## Cn1c(=O)[nH]c(=O)c2c1nc(N/N=C\c1cccc([N+](=O)[O-])c1)n2Cc1ccccc1 [compound 31]
BRAF^WT
  reduction in BRAF inhibitor potency relative to compound 19: ≥ 20 fold

## Cn1c(=O)n(Cc2ccccc2)c(=O)c2c1nc(SCCO)n2Cc1ccccc1 [compound 24]
PAK1
  inhibition against PAK1: did not show significant inhibition
BRAF^WT; versus GSK3β, Pim1, MST1, PAK1, PAK4
  selectivity for BRAF over other representative protein kinases: more than 50 fold
MST1
  inhibition against MST1: did not show significant inhibition
PI3Kγ
  selectivity for BRAF over PI3K lipid kinases: > 12 fold
GSK3β
  inhibition against GSK3β: did not show significant inhibition
Pim1
  inhibition against Pim1: did not show significant inhibition
PAK4
  inhibition against PAK4: did not show significant inhibition

## Cn1c(=O)[nH]c(=O)c2c1nc(N/N=C\c1ccc([N+](=O)[O-])cc1)n2Cc1ccccc1 [compound 32]
BRAF^WT
  reduction in BRAF inhibitor potency relative to compound 19: ≥ 20 fold
